Reference: ChEMBL document CHEMBL4680214, “Fluorinated derivatives of 2-phenyl-3-hydroxy-4(1H)-quinolinone as tubulin polymerization inhibitors” (Eur J Med Chem, 2020)

Columns and labels:
HCT-116 [1] = test: Cytotoxicity against human HCT-116 cells incubated for 72 hrs by MTS assay; format: functional, cell-based; conditions: HCT-116, 72 h
CCRF-CEM [2] = test: Cytotoxicity against human CCRF-CEM cells incubated for 72 hrs by MTS assay; format: functional, cell-based
K562 [3] = test: Cytotoxicity against human K562 cells incubated for 72 hrs by MTS assay; format: functional, cell-based; conditions: K562, 72 h
A549 = test: Cytotoxicity against human A549 cells incubated for 72 hrs by MTS assay; format: functional, cell-based; conditions: A549, 72 h
HCT-116 [4] = test: Cytotoxicity against p53-deficient human HCT-116 cells incubated for 72 hrs by MTS assay; format: functional, cell-based; conditions: HCT-116, 72 h
K562 [5] = test: Cytotoxicity against human paclitaxel-resistant K562 cells incubated for 72 hrs by MTS assay; format: functional, cell-based; conditions: K562, 72 h
CCRF-CEM [6] = test: Cytotoxicity against human daunorubicine-resistant CCRF-CEM cells incubated for 72 hrs by MTS assay; format: functional, cell-based
BJ = test: Cytotoxicity against human BJ cells incubated for 72 hrs by MTS assay; format: cell-based
CCRF-CEM [7] = test: Cell cycle arrest in human CCRF-CEM cells assessed as accumulation at S phase at IC50 measured after 24 hrs by propidium iodide staining based flow cytometry (reference value: 42.2%); format: functional
CCRF-CEM [8] = test: Cell cycle arrest in human CCRF-CEM cells assessed as BrdU incorporation at IC50 measured after 24 hrs by propidium iodide/immunostaining based flow cytometry (reference value: 60.0%); format: functional
CCRF-CEM [9] = test: Cell cycle arrest in human CCRF-CEM cells assessed as phosphorylation of histone H3 at Ser10 at 5 times IC50 measured after 24 hrs by propidium iodide staining based flow cytometry (reference value: 2.0%); format: functional
CCRF-CEM [10] = test: Cell cycle arrest in human CCRF-CEM cells assessed as accumulation at G0/G1 phase at 5 times IC50 measured after 24 hrs by propidium iodide staining based flow cytometry (reference value: 35.2%); format: functional
CCRF-CEM [11] = test: Cell cycle arrest in human CCRF-CEM cells assessed as accumulation at G2/M phase at 5 times IC50 measured after 24 hrs by propidium iodide staining based flow cytometry (reference value: 22.6%); format: functional
CCRF-CEM [12] = test: Cell cycle arrest in human CCRF-CEM cells assessed as accumulation at sub-G1 phase at IC50 measured after 24 hrs by propidium iodide staining based flow cytometry (reference value: 2%); format: functional
CCRF-CEM [13] = test: Cell cycle arrest in human CCRF-CEM cells assessed as phosphorylation of histone H3 at Ser10 at IC50 measured after 24 hrs by propidium iodide staining based flow cytometry (reference value: 2.0%); format: functional
CCRF-CEM [14] = test: Cell cycle arrest in human CCRF-CEM cells assessed as accumulation at G0/G1 phase at IC50 measured after 24 hrs by propidium iodide staining based flow cytometry (reference value: 35.2%); format: functional
CCRF-CEM [15] = test: Cell cycle arrest in human CCRF-CEM cells assessed as accumulation at sub-G1 phase at 5 times IC50 measured after 24 hrs by propidium iodide staining based flow cytometry (reference value: 2%); format: functional
CCRF-CEM [16] = test: Cell cycle arrest in human CCRF-CEM cells assessed as BrU incorporation at 5 times IC50 measured after 24 hrs by propidium iodide/immunostaining based flow cytometry (reference value: 52.2%); format: functional
CCRF-CEM [17] = test: Cell cycle arrest in human CCRF-CEM cells assessed as accumulation at S phase at 5 times IC50 measured after 24 hrs by propidium iodide staining based flow cytometry (reference value: 42.2%); format: functional
CCRF-CEM [18] = test: Cell cycle arrest in human CCRF-CEM cells assessed as BrU incorporation at IC50 measured after 24 hrs by propidium iodide/immunostaining based flow cytometry (reference value: 52.2%); format: functional
CCRF-CEM [19] = test: Cell cycle arrest in human CCRF-CEM cells assessed as BrdU incorporation at 5 times IC50 measured after 24 hrs by propidium iodide/immunostaining based flow cytometry (reference value: 60.0%); format: functional
CCRF-CEM [20] = test: Cell cycle arrest in human CCRF-CEM cells assessed as accumulation at G2/M phase at IC50 measured after 24 hrs by propidium iodide staining based flow cytometry (reference value: 22.6%); format: functional
Sus scrofa = species: Sus scrofa; test: Inhibition of porcine brain tubulin polymerization assessed as Vmax of polymerization at 10 umol/L measured at 60 secs interval for 30 mins by turbidometric method; conditions: dose 10.0 µmol/L

Structure (SMILES)	IC50 (HCT-116 [1])	IC50 (CCRF-CEM [2])	IC50 (K562 [3])	IC50 (A549)	IC50 (HCT-116 [4])	IC50 (K562 [5])	IC50 (CCRF-CEM [6])	IC50 (BJ)	other results
O=c1c(O)c(-c2ccccc2)[nH]c2cc(F)c(N3CCN(CCOCCO)CC3)cc12	> 50 µM	19.8 µM	47.7 µM	> 50 µM	29.4 µM	> 50 µM	> 50 µM	> 50 µM	–
O=c1c(O)c(-c2ccccc2)[nH]c2cc(F)c(N3CCOCC3)cc12	5.2 µM	> 50 µM	19.3 µM	13.6 µM	> 50 µM	12.8 µM	11.7 µM	> 50 µM	–
O=c1c(O)c(-c2ccc(F)cc2)[nH]c2ccccc12	34 µM	2.4 µM	40.4 µM	18.1 µM	36.5 µM	8.6 µM	9.4 µM	> 50 µM	Activity (CCRF-CEM [7]): 24.2%; Activity (CCRF-CEM [8]): 35.5%; Activity (CCRF-CEM [9]): 1.6%; Activity (CCRF-CEM [10]): 45.9%; Activity (CCRF-CEM [11]): 40.7%; Activity (CCRF-CEM [12]): 4.4%; Activity (CCRF-CEM [13]): 1.5%; Activity (CCRF-CEM [14]): 39.6%; Activity (CCRF-CEM [15]): 8.4%; Activity (CCRF-CEM [16]): 32.1%; Activity (CCRF-CEM [17]): 13.5%; Activity (CCRF-CEM [18]): 31.3%; Activity (CCRF-CEM [19]): 25.2%; Activity (CCRF-CEM [20]): 36.2%
COC(=O)Nc1nc2cc(C(=O)c3cccs3)ccc2[nH]1	–	–	–	–	–	–	–	–	Vmax (milli optical density/minute) (Sus scrofa): 7.6
O=c1c(O)c(-c2ccccc2)[nH]c2c(F)c(F)c(F)c(F)c12	> 50 µM	19.5 µM	> 50 µM	> 50 µM	> 50 µM	16.8 µM	> 50 µM	> 50 µM	–
O=c1c(O)c(-c2cccc(F)c2)[nH]c2ccccc12	27.1 µM	7.3 µM	12.9 µM	13.1 µM	50 µM	7.5 µM	50 µM	> 50 µM	Activity (CCRF-CEM [7]): 32.6%; Activity (CCRF-CEM [8]): 26.7%; Activity (CCRF-CEM [9]): 0.2%; Activity (CCRF-CEM [10]): 52.6%; Activity (CCRF-CEM [11]): 27.5%; Activity (CCRF-CEM [12]): 5.4%; Activity (CCRF-CEM [13]): 1%; Activity (CCRF-CEM [14]): 34.9%; Activity (CCRF-CEM [15]): 15.9%; Activity (CCRF-CEM [16]): 3.8%; Activity (CCRF-CEM [17]): 19.9%; Activity (CCRF-CEM [18]): 33.7%; Activity (CCRF-CEM [19]): 22.4%; Activity (CCRF-CEM [20]): 32.6%
CC(=O)O[C@H]1C(=O)[C@@]2(C)[C@H]([C@H](OC(=O)c3ccccc3)[C@]3(O)C[C@H](OC(=O)[C@H](O)[C@@H](NC(=O)c4ccccc4)c4ccccc4)C(C)=C1C3(C)C)[C@]1(OC(C)=O)CO[C@@H]1C[C@@H]2O	–	–	–	–	–	–	–	–	Vmax (milli optical density/minute) (Sus scrofa): 63.3
O=c1c(O)c(-c2ccccc2)[nH]c2ccc(F)cc12	> 50 µM	17.8 µM	18.8 µM	18.8 µM	17.4 µM	20.3 µM	15.3 µM	> 50 µM	–
O=c1c(O)c(-c2ccccc2)[nH]c2cc(F)cc(F)c12	22.5 µM	4.6 µM	21.6 µM	19.6 µM	> 50 µM	19.8 µM	18 µM	> 50 µM	Activity (CCRF-CEM [7]): 48.4%; Activity (CCRF-CEM [8]): 65.7%; Activity (CCRF-CEM [9]): 0.9%; Activity (CCRF-CEM [10]): 26.6%; Activity (CCRF-CEM [11]): 21.8%; Activity (CCRF-CEM [12]): 0.8%; Activity (CCRF-CEM [13]): 2.1%; Activity (CCRF-CEM [14]): 33%; Activity (CCRF-CEM [15]): 1.4%; Activity (CCRF-CEM [16]): 53.7%; Activity (CCRF-CEM [17]): 51.6%; Activity (CCRF-CEM [18]): 57.2%; Activity (CCRF-CEM [19]): 79%; Activity (CCRF-CEM [20]): 18.6%
O=c1c(O)c(-c2ccccc2F)[nH]c2ccccc12	35.1 µM	17.4 µM	33.7 µM	31.7 µM	34.2 µM	22.2 µM	50 µM	> 50 µM	–
O=c1c(O)c(-c2ccccc2)[nH]c2cc(F)ccc12	> 50 µM	17.8 µM	21.7 µM	19.5 µM	43.9 µM	21.4 µM	17.5 µM	> 50 µM	–
O=c1c(O)c(-c2ccccc2)[nH]c2cc(F)c(F)cc12	15.1 µM	12.6 µM	18.9 µM	18.2 µM	22.6 µM	17.4 µM	12.8 µM	> 50 µM	–
